From the supplement of paper PMC13380429

Columns and labels:
Settings in all cases: 72 h
Vero E6 [1] = test: cell viability relative to DMSO; higher = less toxic
Caco-2 [2] = test: as above
HepG2 [3] = test: as above
U2OS [4] = test: as above
Calu-3 [5] = test: as above
Vero E6 [6] = test: drug sensitivity score (DSS) for viability; higher = more toxic; extreme values may be limits of the assay
Caco-2 [7] = test: as above
HepG2 [8] = test: as above
U2OS [9] = test: as above
Calu-3 [10] = test: as above
Vero E6 [11] = test: relative viability EC50 (midpoint between 100% and the lowest measured viability); higher = less toxic
Caco-2 [12] = test: as above
HepG2 [13] = test: as above
U2OS [14] = test: as above
Calu-3 [15] = test: as above

Structure (SMILES)	cell viability (Vero E6 [1]; 1 nM) [%]	cell viability (Vero E6 [1]; 10 nM) [%]	cell viability (Vero E6 [1]; 100 nM) [%]	cell viability (Vero E6 [1]; 1000 nM) [%]	cell viability (Vero E6 [1]; 10000 nM) [%]	cell viability (Caco-2 [2]; 1 nM) [%]	cell viability (Caco-2 [2]; 10 nM) [%]	cell viability (Caco-2 [2]; 100 nM) [%]	cell viability (Caco-2 [2]; 1000 nM) [%]	cell viability (Caco-2 [2]; 10000 nM) [%]	cell viability (HepG2 [3]; 1 nM) [%]	cell viability (HepG2 [3]; 10 nM) [%]	cell viability (HepG2 [3]; 100 nM) [%]	cell viability (HepG2 [3]; 1000 nM) [%]	cell viability (HepG2 [3]; 10000 nM) [%]	cell viability (U2OS [4]; 1 nM) [%]	cell viability (U2OS [4]; 10 nM) [%]	cell viability (U2OS [4]; 100 nM) [%]	cell viability (U2OS [4]; 1000 nM) [%]	cell viability (U2OS [4]; 10000 nM) [%]	cell viability (Calu-3 [5]; 1 nM) [%]	cell viability (Calu-3 [5]; 10 nM) [%]	cell viability (Calu-3 [5]; 100 nM) [%]	cell viability (Calu-3 [5]; 1000 nM) [%]	cell viability (Calu-3 [5]; 10000 nM) [%]	drug sensitivity score (Vero E6 [6])	drug sensitivity score (Caco-2 [7])	drug sensitivity score (HepG2 [8])	drug sensitivity score (U2OS [9])	drug sensitivity score (Calu-3 [10])	relative viability EC50 (Vero E6 [11]) [µM]	relative viability EC50 (Caco-2 [12]) [µM]	relative viability EC50 (HepG2 [13]) [µM]	relative viability EC50 (U2OS [14]) [µM]	relative viability EC50 (Calu-3 [15]) [µM]
O=C(NCc1ccc(OC(F)(F)F)cc1)C1c2ccccc2C(=O)N1C1CCOCC1 (stereo not given) [NAV-26]	95.7	101	88.7	98.9	107	100	90.6	105	96.8	99.2	107	91.6	96.7	112	112	99.3	94.5	99	95.9	91	103	97.6	93.8	99.5	100	0	0	0	0	0	> 10	> 10	> 10	> 10	> 10
CCCN(CCC)CCc1ccc(OC)c(OCCc2ccccc2)c1 [NE-100]	107	106	99.3	103	94.8	105	102	89.8	92.9	91.3	101	98.5	98.6	99.3	93	105	100	104	101	97.9	95.1	93.5	85.9	107	105	0	0.1	0	0	0	> 10	> 10	> 10	> 10	> 10
Cc1c(-c2ccccc2F)[nH]c(N)c1C#N [NS-8]	95.2	99.1	96.2	97.7	109	96.9	90.1	105	97.5	105	93.1	98.3	90.7	96.9	116	98.1	95.9	99.8	93.9	103	104	101	83.6	103	99.2	0	0	0	0	0	> 10	> 10	> 10	> 10	> 10
C[C@H](Nc1cc(-c2cnn(C)c2)cc(Nc2cnccn2)n1)c1ccc(F)cc1 [NS-018]	106	100	99.7	83.4	14.5	99.1	102	104	83.6	32	101	102	102	75.6	3.1	97.6	95.1	100	87.6	26.4	96.4	89.1	91.9	62.7	42	7.4	6.3	9.1	6.1	8.1	1.76	1.58	1.54	1.88	0.517
